Earlier results as cited in patent US20250345461A1, “METHOD FOR REPAIRING HAIR CYCLE-RELATED GENES AND METHOD FOR TREATING HAIR CYCLE-RELATED DISEASES USING MIR-520D-5P” (LIVIUS PTE. LTD., priority 2021, published 2025).
Structures can show the parent of a compound that is named as a salt. Where two headings read alike, the source gives them in different places. Values belong to the molecule of their own block, whether it stands above or below them.

Molecule: C=CCOc1ccccc1OCC(O)CNC(C)C (stereo not drawn) [Oxprenolol]
- Maximum effective blood concentration at the time of administration or concentration in an external preparation in known indications (Tachyarrhythmia, angina): Administration: 30.18 μg/μL

Molecule: CN[C@H](CC(C)C)C(=O)N[C@H]1C(=O)N[C@@H](CC(N)=O)C(=O)N[C@H]2C(=O)N[C@H]3C(=O)N[C@H](C(=O)N[C@H](C(=O)O)c4cc(O)cc(O)c4-c4cc3ccc4O)[C@H](O)c3ccc(c(Cl)c3)Oc3cc2cc(c3O[C@@H]2O[C@H](CO)[C@@H](O)[C@H](O)[C@H]2O[C@H]2C[C@](C)(N)[C@H](O)[C@H](C)O2)Oc2ccc(cc2Cl)[C@H]1O [Vancomycin]
- Maximum effective blood concentration at the time of administration or concentration in an external preparation in known indications (MRSA infection): Administration: 30 μg/mL

Molecule: Colistin
- Maximum effective blood concentration at the time of administration or concentration in an external preparation in known indications (Escherichia coli, Shigella, multidrug-resistant Pseudomonas aeruginosa, infectious enteritis): Administration: 4.4 μg/mL

- Maximum effective blood concentration at the time of administration or concentration in an external preparation in known indications (Essential hypertension, parenchymal renal hypertension, angina, glaucoma, ocular hypertension): Administration: 41.8 ng/mL
Molecule: CC(C)NCC(O)COc1ccc(CCOCC2CC2)cc1 (stereo not drawn) [Betaxolol]

Molecule: CC(C)NCC(O)COc1ccc(COCCOC(C)C)cc1 (stereo not drawn) [Bisoprolol, Bisoprolol fumarate]
- Maximum effective blood concentration at the time of administration or concentration in an external preparation in known indications (Chronic heart failure due to essential hypertension, angina, ischemic heart disease, and dilated cardiomyopathy): Administration: 100 ng/mL

- Maximum effective blood concentration at the time of administration or concentration in an external preparation in known indications (Type 2 diabetes): Administration: 30 μg/mL
Molecule: CCCNC(=O)NS(=O)(=O)c1ccc(Cl)cc1 [Chlorpropamide]

Molecule: CCCCC(CC)CNC(=N)NC(=N)NCCCCCCNC(=N)NC(=N)NCC(CC)CCCC (stereo not drawn) [Alexidine]
- Inhibition of cancer growth (concentration in known indications) (Inhibition of cancer growth): Inhibition of cancer growth: 1 mM

- Maximum effective blood concentration at the time of administration or concentration in an external preparation in known indications (Edematous diseases): Administration: 100 μM
Molecule: C=C(CC)C(=O)c1ccc(OCC(=O)O)c(Cl)c1Cl [Ethacrynic acid]

- Maximum effective blood concentration at the time of administration or concentration in an external preparation in known indications (Hypertension): Administration: 75 ng/mL
Molecule: CCOc1nc2cccc(C(=O)O)c2n1Cc1ccc(-c2ccccc2-c2nnn[nH]2)cc1 [Candesartan]
